pIC50: −log10 of the molar value.
What was measured:
[1] = molecular target: T1, Human PDGFRβ, cytoplasmic domain (GST-PDGFRβ) (Homo sapiens, UniProt P09619); experiment: Human PDGFRβ biochemical inhibition assay (off-chip Mobility Shift Assay)
T1 construct: made in house
Outline: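 GST-tagged cytoplasmic domain (aa 557-1106) from baculovirus was incubated 1 h at room temperature with compound, CSKtide, ATP at Km and Mg²⁺ in HEPES buffer, pH 7.5. Phosphorylated and unphosphorylated peptide were separated by off-chip mobility shift, and the product ratio P/(P+S) gave percent inhibition.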

[2] = molecular target: T2, Human PDGFRα, cytoplasmic domain (GST-PDGFRα) (Homo sapiens, UniProt P16234); experiment: Human PDGFRα biochemical inhibition assay (off-chip Mobility Shift Assay)
T2 construct: made in house
T2 sequence (P16234 550-1089 T674I): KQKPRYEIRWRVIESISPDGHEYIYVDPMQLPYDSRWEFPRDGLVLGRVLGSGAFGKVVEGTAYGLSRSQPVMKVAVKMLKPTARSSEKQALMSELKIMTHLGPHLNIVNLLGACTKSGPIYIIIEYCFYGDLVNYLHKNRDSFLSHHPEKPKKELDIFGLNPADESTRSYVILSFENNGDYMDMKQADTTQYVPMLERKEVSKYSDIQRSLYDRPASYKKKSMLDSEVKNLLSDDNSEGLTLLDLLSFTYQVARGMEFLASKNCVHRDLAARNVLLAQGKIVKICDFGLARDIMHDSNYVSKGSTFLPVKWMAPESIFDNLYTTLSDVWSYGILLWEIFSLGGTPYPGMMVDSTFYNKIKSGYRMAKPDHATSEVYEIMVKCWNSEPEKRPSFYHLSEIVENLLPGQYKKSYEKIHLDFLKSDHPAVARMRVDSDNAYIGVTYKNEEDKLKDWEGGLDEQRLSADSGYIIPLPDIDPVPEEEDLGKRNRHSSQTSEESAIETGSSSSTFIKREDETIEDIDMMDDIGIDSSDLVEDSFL

T1 sequence (P09619 with tags, fused parts or gaps): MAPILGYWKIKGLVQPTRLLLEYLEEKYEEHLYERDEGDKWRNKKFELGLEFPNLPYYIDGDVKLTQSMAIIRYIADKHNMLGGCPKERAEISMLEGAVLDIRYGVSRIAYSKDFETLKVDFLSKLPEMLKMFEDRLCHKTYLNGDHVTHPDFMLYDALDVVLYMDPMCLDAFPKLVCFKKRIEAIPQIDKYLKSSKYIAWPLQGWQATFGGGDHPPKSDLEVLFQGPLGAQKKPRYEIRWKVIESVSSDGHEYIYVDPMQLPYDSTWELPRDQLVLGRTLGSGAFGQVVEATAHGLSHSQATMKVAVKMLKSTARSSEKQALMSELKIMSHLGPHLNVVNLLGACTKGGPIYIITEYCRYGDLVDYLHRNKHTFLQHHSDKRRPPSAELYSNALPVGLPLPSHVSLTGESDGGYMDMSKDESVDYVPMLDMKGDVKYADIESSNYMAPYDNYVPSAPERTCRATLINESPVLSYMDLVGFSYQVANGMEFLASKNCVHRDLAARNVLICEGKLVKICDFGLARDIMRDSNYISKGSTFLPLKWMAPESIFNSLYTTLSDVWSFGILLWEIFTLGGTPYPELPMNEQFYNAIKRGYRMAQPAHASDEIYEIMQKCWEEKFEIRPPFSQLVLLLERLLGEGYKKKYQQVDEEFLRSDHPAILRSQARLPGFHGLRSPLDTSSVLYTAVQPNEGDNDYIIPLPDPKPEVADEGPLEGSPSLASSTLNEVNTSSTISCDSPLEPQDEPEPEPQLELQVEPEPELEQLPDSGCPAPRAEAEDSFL

SMILES	pIC50 [1]	pIC50 [2]
CCn1cc2ncc(N[C@@H](C)c3cc(NC(=O)Cc4ccc(C)cn4)c(F)cc3F)nc2n1 [Compound 724, (S)-N-(5-(1-((2-ethyl-2H-pyrazolo[3,4-b]pyrazin-6-yl)amino)ethyl)-2,4-difluorophenyl)-2-(5-methylpyridin-2-yl)acetamide]	≤ 6.00	> 6.52
Cc1c[nH]c2ncc(N[C@@H](C)c3cccc(NC(=O)c4cc(C(F)(F)F)nn4C)c3)nc12 [Compound 562, (S)-1-methyl-N-(3-(1-((7-methyl-5H-pyrrolo[2,3-b]pyrazin-2-yl)amino)ethyl)phenyl)-3-(trifluoromethyl)-1H-pyrazole-5-carboxamide]	6.00 to 6.52	> 6.52
CCn1cc2ncc(N[C@@H](C)c3cc(NC(=O)c4ccc(C(F)(F)F)nc4)c(F)cc3F)nc2n1 [Compound 492, (S)-N-(5-(1-((2-ethyl-2H-pyrazolo[3,4-b]pyrazin-6-yl)amino)ethyl)-2,4-difluorophenyl)-6-(trifluoromethyl)nicotinamide]	6.00 to 6.52	> 6.52
CCn1cc2ncc(N[C@@H](C)c3cc(NC(=O)Cc4cncc(C)c4)ccc3F)nc2n1 [Compound 652, (S)-N-(3-(1-((2-ethyl-2H-pyrazolo[3,4-b]pyrazin-6-yl)amino)ethyl)-4-fluorophenyl)-2-(5-methylpyridin-3-yl) acetamide]	6.00 to 6.52	> 6.52
CCn1cc2ncc(N[C@@H](C)c3cccc(NC(=O)c4ccc(N5CCN(C)CC5)c(Cl)c4)c3)nc2n1 [Compound 361, (S)-3-chloro-N-(3-(1-((2-ethyl-2H-pyrazolo[3,4-b]pyrazin-6-yl)amino)ethyl)phenyl)-4-(4-methylpiperazin-1-yl)benzamide]	6.00 to 6.52	> 6.52
CCn1cc2ncc(N[C@@H](C)c3cccc(NC(=O)c4ccc(CN5CC(F)C5)c(Cl)c4)c3)nc2n1 [Compound 495, (S)-3-chloro-N-(3-(1-((2-ethyl-2H-pyrazolo[3,4-b]pyrazin-6-yl)amino)ethyl)phenyl)-4-((3-fluoroazetidin-1-yl)methyl) benzamide]	> 6.52	> 6.52
Cc1c[nH]c2ncc(N[C@@H](C)c3cccc(NC(=O)c4cncc(Cl)c4)c3)nc12 [Compound 565, (S)-5-chloro-N-(3-(1-((7-methyl-5H-pyrrolo[2,3-b]pyrazin-2-yl)amino)ethyl)phenyl)nicotinamide]	> 6.52	> 6.52
CCn1cc2ncc(N[C@@H](C)c3cccc(NC(=O)Cc4ccc(F)c(F)c4)c3)nc2n1 [Compound 648, (S)-2-(3,4-difluorophenyl)-N-(3-(1-((2-ethyl-2H-pyrazolo[3,4-b]pyrazin-6-yl)amino)ethyl)phenyl)acetamide]	> 6.52	> 6.52
COc1ccc(C(=O)Nc2cccc([C@H](C)Nc3cnc4cnn(C)c4n3)c2)cc1OC [Compound 203, (S)-3,4-dimethoxy-N-(3-(1-((1-methyl-1H-pyrazolo[3,4-b]pyrazin-6-yl)amino)ethyl)phenyl)benzamide]	> 6.52	> 6.52
CCn1cc2ncc(N[C@@H](C)c3cccc(NC(=O)c4ccc(NC5CC5)nc4)c3)nc2n1 [Compound 385, (S)-6-(cyclopropylamino)-N-(3-(1-((2-ethyl-2H-pyrazolo[3,4-b]pyrazin-6-yl)amino)ethyl)phenyl)nicotinamide]	6.00 to 6.52	> 6.52
CCn1cc2ncc(N[C@@H](C)c3cccc(NC(=O)c4cnc(C)c(C)c4)c3)nc2n1 [Compound 328, (S)-N-(3-(1-((2-ethyl-2H-pyrazolo[3,4-b]pyrazin-6-yl)amino)ethyl)phenyl)-5,6-dimethylnicotinamide]	> 6.52	> 6.52
CCn1cc2ncc(N[C@@H](C)c3cc(NC(=O)c4ccc(C(F)(F)F)nc4)ccc3F)nc2n1 [Compound 10, (S)—N-(3-(1-((2-ethyl-2H-pyrazolo[3,4-b]pyrazin-6-yl)amino)ethyl)-4-fluorophenyl)-6-(trifluoromethyl)nicotinamide]	> 6.52	> 6.52
CCn1cc2ncc(N[C@@H](C)c3cccc(NC(=O)c4cncc(F)c4)c3)nc2n1 [Compound 355, (S)-N-(3-(1-((2-ethyl-2H-pyrazolo[3,4-b]pyrazin-6-yl)amino)ethyl)phenyl)-5-fluoronicotinamide]	≤ 6.00	6.00 to 6.52
CNc1ncc(C(=O)Nc2cccc([C@H](C)Nc3cnc4cnn(C)c4n3)c2)cc1C [Compound 130, (S)-5-methyl-N-(3-(1-((1-methyl-1H-pyrazolo[3,4-b]pyrazin-6-yl)amino)ethyl)phenyl)-6-(methylamino) nicotinamide]	> 6.52	> 6.52
CCn1cc2ncc(N[C@@H](C)c3cc(NC(=O)c4cc(C)c(CN5CCOCC5)c(F)c4)ccc3C)nc2n1 [Compound 526, (S)-N-(3-(1-((2-ethyl-2H-pyrazolo[3,4-b]pyrazin-6-yl)amino)ethyl)-4-methylphenyl)-3-fluoro-5-methyl-4-(morpholinomethyl)benzamide]	> 6.52	> 6.52
CCn1cc(C(=O)Nc2cccc([C@H](C)Nc3cnc4cnn(C)c4n3)c2)cn1 [Compound 153, (S)-1-ethyl-N-(3-(1-((1-methyl-1H-pyrazolo[3,4-b]pyrazin-6-yl)amino)ethyl)phenyl)-1H-pyrazole-4-carboxamide]	> 6.52	> 6.52
Cc1cc(C(=O)Nc2cccc([C@H](C)Nc3cnc4cnn(C)c4n3)c2)cnc1CN1CCSCC1 [Compound 244, (S)-5-methyl-N-(3-(1-((1-methyl-1H-pyrazolo[3,4-b]pyrazin-6-yl)amino)ethyl)phenyl)-6-(thiomorpholinomethyl) nicotinamide]	> 6.52	> 6.52
CCn1cc2ncc(N[C@@H](C)c3cc(NC(=O)c4cc(F)c(CN5CC[C@@H](O)C5)c(Cl)c4)ccc3C)nc2n1 [Compound 521, 3-chloro-N-(3-((S)-1-((2-ethyl-2H-pyrazolo[3,4-b]pyrazin-6-yl)amino)ethyl)-4-methylphenyl)-5-fluoro-4-(((R)-3-hydroxypyrrolidin-1-yl)methyl) benzamide]	> 6.52	> 6.52
CCn1cc2ncc(N[C@@H](C)c3cc(NC(=O)c4ccc(CN5CCN(C)CC5)c(Cl)c4)ccc3F)nc2n1 [Compound 429, (S)-3-chloro-N-(3-(1-((2-ethyl-2H-pyrazolo[3,4-b]pyrazin-6-yl)amino)ethyl)-4-fluorophenyl)-4-((4-methylpiperazin-1-yl)methyl)benzamide]	> 6.52	> 6.52

Second part, the molecule after the results:

pIC50 [1]	pIC50 [2]	SMILES
> 6.52	> 6.52	Cc1ncc(C(=O)Nc2cccc([C@H](C)Nc3cnc4cnn(C)c4n3)c2)cc1F [Compound 250, (S)-5-fluoro-6-methyl-N-(3-(1-((1-methyl-1H-pyrazolo[3,4-b]pyrazin-6-yl)amino)ethyl)phenyl)nicotinamide]
> 6.52	> 6.52	Cc1n[nH]c2ncc(N[C@@H](C)c3cccc(NC(=O)c4cncc(Cl)c4)c3)nc12 [Compound 533, (S)-5-chloro-N-(3-(1-((3-methyl-1H-pyrazolo[3,4-b]pyrazin-5-yl)amino)ethyl)phenyl)nicotinamide]
> 6.52	> 6.52	CC(C)c1cc(C(=O)Nc2cccc([C@H](C)Nc3cnc4cnn(C)c4n3)c2)nn1C [Compound 162, (S)-5-isopropyl-1-methyl-N-(3-(1-((1-methyl-1H-pyrazolo[3,4-b]pyrazin-6-yl)amino)ethyl)phenyl)-1H-pyrazole-3-carboxamide]
> 6.52	> 6.52	C[C@H](Nc1cnc2cnn(C)c2n1)c1cccc(NC(=O)c2cncc(S(C)(=O)=O)c2)c1 [Compound 227, (S)-N-(3-(1-((1-methyl-1H-pyrazolo[3,4-b]pyrazin-6-yl)amino)ethyl)phenyl)-5-(methylsulfonyl)nicotinamide]
> 6.52	> 6.52	Cc1ccc(C(=O)Nc2cccc([C@H](C)Nc3cnc4cnn(C)c4n3)c2)cc1F [Compound 188, (S)-3-fluoro-4-methyl-N-(3-(1-((1-methyl-1H-pyrazolo[3,4-b]pyrazin-6-yl)amino)ethyl)phenyl)benzamide]
> 6.52	> 6.52	CCn1cc2ncc(N[C@@H](C)c3cccc(NC(=O)c4ccc(F)c(C)c4)c3)nc2n1 [Compound 330, (S)-N-(3-(1-((2-ethyl-2H-pyrazolo[3,4-b]pyrazin-6-yl)amino)ethyl)phenyl)-4-fluoro-3-methylbenzamide]
> 6.52	> 6.52	CCn1cc2ncc(N[C@@H](C)c3cccc(NC(=O)Cc4cc(F)cc(Cl)c4)c3)nc2n1 [Compound 641, (S)-2-(3-chloro-5-fluorophenyl)-N-(3-(1-((2-ethyl-2H-pyrazolo[3,4-b]pyrazin-6-yl)amino)ethyl)phenyl)acetamide]
> 6.52	> 6.52	Cc1ncc(C(=O)Nc2cccc([C@H](C)Nc3cnc4cnn(C)c4n3)c2)s1 [Compound 138, (S)-2-methyl-N-(3-(1-((1-methyl-1H-pyrazolo[3,4-b]pyrazin-6-yl)amino)ethyl)phenyl)thiazole-5-carboxamide]
> 6.52	> 6.52	Cc1cc(C(=O)Nc2cccc([C@H](C)Nc3cnc4[nH]cc(-c5cnn(C)c5)c4n3)c2)cnc1N1CCCC1 [Compound 577, (S)-5-methyl-N-(3-(1-((7-(1-methyl-1H-pyrazol-4-yl)-5H-pyrrolo[2,3-b]pyrazin-2-yl)amino)ethyl)phenyl)-6-(pyrrolidin-1-yl)nicotinamide]
> 6.52	> 6.52	CCn1cc2ncc(N[C@@H](C)c3cccc(NC(=O)c4cnc(OC)c(Cl)c4)c3)nc2n1 [Compound 356, (S)-5-chloro-N-(3-(1-((2-ethyl-2H-pyrazolo[3,4-b]pyrazin-6-yl)amino)ethyl)phenyl)-6-methoxynicotinamide]

From US20230102554A1 (GB002, INC., priority 2019, published 2023)
